The experiment has as its system MV4-11 cells. Put plainly: Inhibition of MV4-11 cell proliferation (CellTiterGlo, 72 hours). As to conditions: Homo sapiens; 72 hours growth; uncertainty ±20%. It is filed as cell-based. The procedure: Inhibition Of MV4-11 and Baf3 Cell Proliferation
To assess the cellular potency of the FLT3 inhibitors of Formula I′, FLT3 specific growth inhibition was measured in the leukemic cell line MV4-11 (ATCC Number: CRL-9591). […] MV4-11 cells cannot grow and survive without active FLT3ITD.
To measure proliferation inhibition by test compounds, the luciferase based CellTiterGlo reagent (Promega), which quantifies total cell number based on total cellular ATP concentration, was used. Cells are plated at 10,000 cells per well in 100 ul of in RPMI media containing penn/strep, 10% FBS and 1 ng/ml GM-CSF or 1 ng/ml IL-3 for MV4-11 and Baf3 cells respectively.
Compound dilutions or 0.1% DMSO (vehicle control) are added to cells and the cells are allowed to grow for 72 hours at standard cell growth conditions (37° C., 5% CO2). For activity measurements in MV4-11 cells grown in 50% plasma, cells were plated at 10,000 cells per well in a 1:1 mixture of growth media and human plasma (final volume of 100 μL). To measure total cell growth an equal volume of CellTiterGlo reagent was added to each well, according to the manufacturer's instructions, and luminescence was quantified. Total cell growth was quantified as the difference in luminescent counts (relative light units, RLU) of cell number at Day 0 compared to total cell number at Day 3 (72 hours of growth and/or compound treatment). One hundred percent inhibition of growth is defined as an RLU equivalent to the Day 0 reading. Zero percent inhibition was defined as the RLU signal for the DMSO vehicle control at Day 3 of growth. All data points are an average of triplicate samples. […] Inhibition and IC50 data analysis was done with GraphPad Prism using a non-linear regression fit with a multiparamater, sigmoidal dose-response (variable slope) equation.
MV4-11 cells express the FLT3 internal tandem duplication mutation, and thus are entirely dependent upon FLT3 activity for growth. […] In contrast, the Baf3 cell proliferation is driven by the cytokine IL-3 and thus are used as a non-specific toxicity control for test compounds.

The structures appear in SMILES notation.

As to `CO/N=C/c1c(N)ncnc1N1CCC(OC(=O)Nc2ccc(OC(C)C)cc2)CC1` [Number 1, (4-Isopropoxy-phenyl)-carbamic acid 1-[6-amino-5-(methoxyimino-methyl)-pyrimidin-4-yl]-piperidin-4-yl ester], the IC50 came out at 740 nM.

On to `CCO/N=C/c1c(N)ncnc1N1CCC(OC(=O)Nc2ccc(OC(C)C)cc2)CC1` [Number 2, (4-Isopropoxy-phenyl)-carbamic acid 1-[6-amino-5-(ethoxyimino-methyl)-pyrimidin-4-yl]-piperidin-4-yl ester], for which the IC50 was found to be 135 nM.

`CC(C)Oc1ccc(NC(=O)OC2CCN(c3ncnc(N)c3/C=N/OCCCN(C)C)CC2)cc1` [Number 4, (4-Isopropoxy-phenyl)-carbamic acid 1-{6-amino-5-[(3-dimethylamino-propoxyimino)-methyl]-pyrimidin-4-yl}-piperidin-4-yl ester]: the IC50 is 1400 nM.

Compound `CO/N=C/c1c(N)ncnc1N1CCC(OC(=O)Nc2ccc(C(C)C)cc2)CC1` [Number 5, (4-Isopropyl-phenyl)-carbamic acid 1-[6-amino-5-(methoxyimino-methyl)-pyrimidin-4-yl]-piperidin-4-yl ester] came in with an IC50 of 11 nM.

`CO/N=C/c1c(N)ncnc1N1CCC(CC(=O)Nc2ccc(C(C)C)cc2)C1` (stereo not shown) [Number 6, 2-{1-[6-Amino-5-(methoxyimino-methyl)-pyrimidin-4-yl]-pyrrolidin-3-yl}-N-(4-isopropyl-phenyl)-acetamide] yielded an IC50 of 31 nM.

In turn, `CO/N=C/c1c(N)ncnc1N1CCC(CC(=O)Nc2ccc(C(C)C)cc2)CC1` [Number 7, 2-{1-[6-Amino-5-(methoxyimino-methyl)-pyrimidin-4-yl]-piperidin-4-yl}-N-(4-isopropyl-phenyl)-acetamide] gave an IC50 of 208 nM.

For the compound `CO/N=C/c1c(N)ncnc1N1CCC(NC(=O)Nc2ccc(OC(C)C)cc2)C1` (stereo not shown) [Number 8, 1-{1-[6-Amino-5-(methoxyimino-methyl)-pyrimidin-4-yl]-pyrrolidin-3-yl}-3-(4-isopropoxy-phenyl)-urea], the half-maximal inhibitory concentration (IC50) was 455 nM.

In turn, `CO/N=C/c1c(N)ncnc1N1CCC(NC(=O)Nc2ccc(N3CCCCC3)cc2)C1` (stereo not shown) [Number 9, 1-{1-[6-Amino-5-(methoxyimino-methyl)-pyrimidin-4-yl]-pyrrolidin-3-yl}-3-(4-piperidin-1-yl-phenyl)-urea] gave a half-maximal inhibitory concentration (IC50) of 764 nM.

`CO/N=C/c1c(N)ncnc1N1CCC(NC(=O)Nc2ccc(N3CCOCC3)cc2)C1` (stereo not shown) [Number 10, 1-{1-[6-Amino-5-(methoxyimino-methyl)-pyrimidin-4-yl]-pyrrolidin-3-yl}-3-(4-morpholin-4-yl-phenyl)-urea] yielded a half-inhibitory concentration (IC50) of 569 nM.

Regarding `CO/N=C/c1c(N)ncnc1N1CCC(NC(=O)Nc2ccc(OC3CCC3)nc2)C1` (stereo not shown) [Number 11, 1-{1-[6-Amino-5-(methoxyimino-methyl)-pyrimidin-4-yl]-pyrrolidin-3-yl}-3-(6-cyclobutoxy-pyridin-3-yl)-urea], 398 nM corresponded to half-maximal inhibition (IC50).

As to `CO/N=C/c1c(N)ncnc1N1CCC(NC(=O)Nc2ccc(OC(C)C)cc2)CC1` [Number 12, 1-{1-[6-Amino-5-(methoxyimino-methyl)-pyrimidin-4-yl]-piperidin-4-yl}-3-(4-isopropoxy-phenyl)-urea], inhibition was half-maximal at 672 nM (IC50).

Compound `CO/N=C/c1c(N)ncnc1N1CCC(NC(=O)Nc2ccc(N3CCCCC3)cc2)CC1` [Number 13, 1-{1-[6-Amino-5-(methoxyimino-methyl)-pyrimidin-4-yl]-piperidin-4-yl}-3-(4-piperidin-1-yl-phenyl)-urea] had a half-maximal inhibitory concentration (IC50) of 587 nM.

As for `CO/N=C/c1c(N)ncnc1N1CCC(NC(=O)Nc2ccc(N3CCOCC3)cc2)CC1` [Number 14, 1-{1-[6-Amino-5-(methoxyimino-methyl)-pyrimidin-4-yl]-piperidin-4-yl}-3-(4-morpholin-4-yl-phenyl)-urea], inhibition was half-maximal at 1200 nM (IC50).

In turn, `CO/N=C/c1c(N)ncnc1N1CCC(NC(=O)Nc2ccc(OC3CCC3)nc2)CC1` [Number 15, 1-{1-[6-Amino-5-(methoxyimino-methyl)-pyrimidin-4-yl]-piperidin-4-yl}-3-(6-cyclobutoxy-pyridin-3-yl)-urea] returned an IC50 of 578 nM.

On to `CO/N=C/c1c(N)ncnc1N1CCC(NC(=O)Nc2ccc(C3CCCCC3)cc2)C1` (stereo not shown) [Number 17, 1-{1-[6-Amino-5-(methoxyimino-methyl)-pyrimidin-4-yl]-pyrrolidin-3-yl}-3-(4-cyclohexyl-phenyl)-urea], for which the IC50 is 386 nM.

For the compound `CO/N=C/c1c(N)ncnc1N1CCC(NC(=O)Nc2ccc(Cl)cc2)C1` (stereo not shown) [Number 18, 1-{1-[6-Amino-5-(methoxyimino-methyl)-pyrimidin-4-yl]-pyrrolidin-3-yl}-3-(4-chloro-phenyl)-urea], the IC50 came out at 735 nM.

As for `CO/N=C/c1c(N)ncnc1N1CCC(NC(=O)Nc2ccc(Oc3ccccc3)cc2)C1` (stereo not shown) [Number 19, 1-{1-[6-Amino-5-(methoxyimino-methyl)-pyrimidin-4-yl]-pyrrolidin-3-yl}-3-(4-phenoxy-phenyl)-urea], the IC50 turned out to be 371 nM.

As for `CO/N=C/c1c(N)ncnc1N1CCC(NC(=O)Nc2ccc(N3CCCC3)cc2)C1` (stereo not shown) [Number 20, 1-{1-[6-Amino-5-(methoxyimino-methyl)-pyrimidin-4-yl]-pyrrolidin-3-yl}-3-(4-pyrrolidin-1-yl-phenyl)-urea], the half-inhibitory concentration (IC50) is 491 nM.

Regarding `CO/N=C/c1c(N)ncnc1N1CCC(NC(=O)Nc2ccc(OC3CCCC3)nc2)C1` (stereo not shown) [Number 21, 1-{1-[6-Amino-5-(methoxyimino-methyl)-pyrimidin-4-yl]-pyrrolidin-3-yl}-3-(6-cyclopentyloxy-pyridin-3-yl)-urea], the half-maximal inhibitory concentration (IC50) came out at 249 nM.

Consider `CO/N=C/c1c(N)ncnc1N1CCC(NC(=O)Nc2ccc(C3CCCCC3)cc2)CC1` [Number 22, 1-{1-[6-Amino-5-(methoxyimino-methyl)-pyrimidin-4-yl]-piperidin-4-yl}-3-(4-cyclohexyl-phenyl)-urea], for which the 50% inhibitory concentration (IC50) amounted to 672 nM.

Compound `CO/N=C/c1c(N)ncnc1N1CCC(NC(=O)Nc2ccc(OC3CCCC3)nc2)CC1` [Number 23, 1-{1-[6-Amino-5-(methoxyimino-methyl)-pyrimidin-4-yl]-piperidin-4-yl}-3-(6-cyclopentyloxy-pyridin-3-yl)-urea] had an IC50 of 651 nM.

Consider `CO/N=C/c1c(N)ncnc1N1CCC(NC(=O)Nc2ccc(Cl)cc2)CC1` [Number 25, 1-{1-[6-Amino-5-(methoxyimino-methyl)-pyrimidin-4-yl]-piperidin-4-yl}-3-(4-chloro-phenyl)-urea], for which the half-maximal inhibitory concentration (IC50) amounted to 890 nM.

In turn, `CO/N=C/c1c(N)ncnc1N1CCC(NC(=O)Nc2ccc(Oc3ccccc3)cc2)CC1` [Number 26, 1-{1-[6-Amino-5-(methoxyimino-methyl)-pyrimidin-4-yl]-piperidin-4-yl}-3-(4-phenoxy-phenyl)-urea] registered an IC50 of 856 nM.

On to `CCNC(=O)NCCO/N=C/c1c(N)ncnc1N1CCC(NC(=O)Nc2ccc(C(C)C)cc2)C1` (stereo not shown) [Number 28, 1-[1-(6-Amino-5-{[2-(3-ethyl-ureido)-ethoxyimino]-methyl}-pyrimidin-4-yl)-pyrrolidin-3-yl]-3-(4-isopropyl-phenyl)-urea], for which the IC50 was determined as 498 nM.

With `CC(C)c1ccc(NC(=O)NC2CCN(c3ncnc(N)c3/C=N/OCC(=O)N3CCOCC3)C2)cc1` (stereo not shown) [Number 29, 1-(1-{6-Amino-5-[(2-morpholin-4-yl-2-oxo-ethoxyimino)-methyl]-pyrimidin-4-yl}-pyrrolidin-3-yl)-3-(4-isopropyl-phenyl)-urea], it took 856 nM to reach half-maximal inhibition (IC50).

Source of the values: patent publication US20060281700A1, “SYNERGISTIC MODULATION OF FLT3 KINASE USING AMINOPYRIMIDINES KINASE MODULATORS” (priority 2005, published 2006).
